Data published in patent US20260265305A1, “POLYPEPTIDE DERIVATIVE FOR ORAL DELIVERY” (Hangzhou Sciwind Biosciences Co., Ltd., priority 2023, published 2026).
Numbered stars: 1 amine (or outer) side, 2 acyl side, 3 side chain; on linkers, the order of the positions; unused ones are H or OH. Square brackets hold non-standard residues; d marks the D form. Peptide text beside a SMILES is read from it. * marks the point of attachment. C20 diacid = O=C(O)CCCCCCCCCCCCCCCCCCC(=O)*; C18 diacid = O=C(O)CCCCCCCCCCCCCCCCC(=O)*; γGlu = O=C(O)[C@H](CCC(=O)[*:2])N[*:1]; AEEA = NCCOCCOCC(=O)O; Inp = O=C(O)C1CCNCC1

Legend:
[1] = biological target: T1, amylin receptor (hAMY3R) (Homo sapiens, UniProt O60896+P30988); experiment: Amylin receptor agonism testing, CRE-luciferase assay in stably transfected CHO-K1/Ga15/AMY3 cells; type: cell-based; conditions: for Fold change in activity against hAMY3R: relative to D1 as benchmark
T1 construct: host or cells: CHO-K1/Ga15/AMY3 cells, further stably transfected with a CRE-luciferase plasmid
T1 sequence (P30988 25-474): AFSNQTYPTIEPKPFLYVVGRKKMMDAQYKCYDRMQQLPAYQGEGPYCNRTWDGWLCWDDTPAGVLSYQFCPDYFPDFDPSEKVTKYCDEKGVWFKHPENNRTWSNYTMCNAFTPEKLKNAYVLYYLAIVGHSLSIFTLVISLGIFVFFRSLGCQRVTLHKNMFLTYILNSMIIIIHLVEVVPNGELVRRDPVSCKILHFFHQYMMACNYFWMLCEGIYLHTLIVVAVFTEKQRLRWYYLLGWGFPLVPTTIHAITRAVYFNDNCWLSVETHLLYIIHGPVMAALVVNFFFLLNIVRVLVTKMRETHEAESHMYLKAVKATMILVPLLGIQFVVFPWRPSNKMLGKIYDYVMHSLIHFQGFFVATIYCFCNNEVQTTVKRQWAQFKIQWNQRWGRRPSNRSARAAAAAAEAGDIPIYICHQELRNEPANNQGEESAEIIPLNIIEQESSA
T1 sequence (O60896 24-148): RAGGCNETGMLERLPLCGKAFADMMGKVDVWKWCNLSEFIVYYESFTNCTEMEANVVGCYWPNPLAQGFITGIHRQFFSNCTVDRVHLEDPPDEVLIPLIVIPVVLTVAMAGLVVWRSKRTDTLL

[2] = biological target: T2, calcitonin receptor (hCTR) (Homo sapiens, UniProt P30988); experiment: Calcitonin receptor agonism, CRE-luciferase assay in stably transfected CHO-K1/CALCR/Ga15 cells; type: cell-based; conditions: for EC50: incubation of 24 hours, Table 4, read-out: EC50, activity against the calcitonin receptor in cells; for Fold change in activity against hCTR: relative to D1 as benchmark
T2 construct: host or cells: CHO-K1/CALCR/Ga15 cells, further stably transfected with a CRE-luciferase plasmid
T2 sequence (P30988 25-474): T1 sequence (P30988 25-474)

[3] = Heat accelerated stability assay of polypeptide solutions (40° C., pH about 7.4), reversed phase chromatography; type: physicochemical; conditions: 40° C.; for Concentration change on 7 d / Concentration change on 26 d: pH about 7.4, 1 mg/mL; for Concentration change on 7 d / Purity change on 7 d: Day 7; for Concentration change on 26 d / Purity change on 26 d: Day 26; for Purity change on 7 d / Purity change on 26 d: reversed phase chromatography 214 nm; for Purity change on 7 d: purity on 7 d − purity on 0 d; for Purity change on 26 d: purity on 26 d − purity on 0 d
Experimental: A stability test chamber (BINDER GmbH), a 0.01 mg-readability balance (METTLER TOLEDO), a pH meter (METTLER TOLEDO), a biosafety cabinet (ESCO), T2G-II small-sized motor-driven capping machine (Changsha zhongya pharmaceutical equipment co. LTD), a high-speed refrigerated centrifuge (Eppendorf), a sterilizer cabinet (Shinva Medical), Agilent 1260 high-performance liquid chromatographer, and Sepax Bio-C18 4.6*250 mm 3 μm 200 Å reversed phase column were used.
Reagents and consumables included: ultrapure water (18.2 MΩ, self-made), acetonitrile (HPLC grade), trifluoroacetic acid (HPLC grade), sodium dihydrogen phosphate (pharmaceutical grade, Hunan Jiudian Hongyang Pharmaceutical Co., Ltd), hydrochloric acid (pharmaceutical grade, Hunan Er-Kang Pharmaceutical Co., Ltd), sodium hydroxide (Analytical Reagent grade, Hushi®, Sinopharm Chemical Reagent Co., Ltd), vials, rubber stoppers, disposable syringes, and sterile filters.
The lyophilized powder (1 mg/mL) of the polypeptide derivative prepared in accordance with the method of Example 1 was mixed with sodium dihydrogen phosphate (1.42 mg/mL) and dissolved in ultrapure water in the indicated mass-volume ratios. After adjusting pH to about 7.4 with hydrochloric acid/sodium hydroxide, the solution was filtered into a sterilized vial in a clean bench using a 0.22 μm sterile filter. The vial was then capped and placed into the stability test chamber at 40° C. Detections were made on Days 7 (7d) and 26 (26d), and during the assay, changes in the characteristics and properties of the polypeptide were observed and recorded. The sample was then centrifuged for 3 min at 10,000 rpm at 4° C., and the supernatant was transferred to a liquid phase sample vial for detecting the concentration and purity of the polypeptides using liquid phase chromatography described as below, wherein the concentration of the polypeptide=peak area/injection volume/extinction coefficient/60×flow rate, and the purity of the polypeptide=target peak area/total peak area×100%.
Conditions of the reversed phase chromatography Flow rate: 1.0 ml/min; Autosampler temperature: 15° C.; Column temperature: 25° C.; Detection wavelengths: 280 nm and 214 nm; Mobile phase A: 100% H2O+0.05% TFA; Mobile phase B: 100% ACN; and Gradient of elution listed in Table 6: […]

| SMILES | Fold change in activity against hAMY3R [1] | EC50 [2] [pM] | Fold change in activity against hCTR [2] | Concentration change on 7 d [3] [%] | Concentration change on 26 d [3] [%] | Purity change on 7 d [3] [%] | Purity change on 26 d [3] | increase in the ratio of activity against the amylin receptor to agonistic activity against the calcitonin receptor ([1]; relative to the benchmark D1) [fold] | EC50 ([1]; incubation of 24 hours, Table 3, read-out: EC50, activity against the amylin receptor in cells) [pM] |
| --- | --- | --- | --- | --- | --- | --- | --- | --- | --- |
| CC(C)C[C@H](NC(=O)[C@H](CCCNC(=N)N)NC(=O)CNC(=O)[C@H](CC(C)C)NC(=O)[C@@H](NC(=O)[C@H](C)NC(=O)[C@@H](NC(=O)[C@H](CO)NC(=O)[C@H](CC(C)C)NC(=O)[C@H](CCC(N)=O)NC(=O)[C@H](CO)NC(=O)[C@H](C)NC(=O)[C@H](CCC(=O)O)NC(=O)CCCCCCCCCCCCCCCCC(=O)O)[C@@H](C)O)C(C)C)C(=O)N[C@@H](CO)C(=O)N[C@@H](CC(=O)O)C(=O)N[C@@H](CCC(=O)O)C(=O)N[C@@H](CC(C)C)C(=O)N[C@@H](Cc1c[nH]cn1)C(=O)N[C@@H](CCCNC(=N)N)C(=O)N[C@@H](CC(C)C)C(=O)N[C@@H](CCC(N)=O)C(=O)N[C@@H](CC(=O)O)C(=O)N[C@@H](Cc1ccc(O)cc1)C(=O)N1CCC[C@H]1C(=O)N[C@@H](CCCNC(=N)N)C(=O)N[C@H](C(=O)N[C@@H](CC(=O)O)C(=O)N[C@H](C(=O)NCC(=O)N[C@@H](CO)C(=O)NCC(=O)N[C@@H](CO)C(=O)N1CCC[C@H]1C(N)=O)C(C)C)[C@@H](C)O [M11] ({C18 diacid}-EASQLSTAVLGRLSDELHRLQDYPRTDVGSGSP-NH2) | 2.250 | 71 | 1.211 | −3.472 | −9.840 | 1.01 | −2.93% | – | – |
| CC(C)C[C@H](NC(=O)[C@H](CCCNC(=N)N)NC(=O)CNC(=O)[C@H](CC(C)C)NC(=O)[C@@H](NC(=O)[C@H](C)NC(=O)[C@@H](NC(=O)[C@H](CO)NC(=O)[C@H](CC(C)C)NC(=O)[C@H](CCC(N)=O)NC(=O)[C@H](CO)NC(=O)[C@H](C)NC(=O)CC[C@H](NC(=O)CCCCCCCCCCCCCCCCCCC(=O)O)C(=O)O)[C@@H](C)O)C(C)C)C(=O)N[C@@H](CO)C(=O)N[C@@H](CC(=O)O)C(=O)N[C@@H](CCC(=O)O)C(=O)N[C@@H](CC(C)C)C(=O)N[C@@H](Cc1c[nH]cn1)C(=O)N[C@@H](CCCNC(=N)N)C(=O)N[C@@H](CC(C)C)C(=O)N[C@@H](CCC(N)=O)C(=O)N[C@@H](CC(=O)O)C(=O)N[C@@H](Cc1ccc(O)cc1)C(=O)N1CCC[C@H]1C(=O)N[C@@H](CCCNC(=N)N)C(=O)N[C@H](C(=O)N[C@@H](CC(=O)O)C(=O)N[C@H](C(=O)NCC(=O)N[C@@H](CO)C(=O)NCC(=O)N[C@@H](CO)C(=O)N1CCC[C@H]1C(N)=O)C(C)C)[C@@H](C)O [M6] ({C20 diacid-γGlu}-ASQLSTAVLGRLSDELHRLQDYPRTDVGSGSP-NH2) | 2.118 | 28 | 3.071 | – | −1.865 | 1.64 | No change | – | – |
| CC(C)C[C@H](NC(=O)[C@H](CCCNC(=N)N)NC(=O)CNC(=O)[C@H](CC(C)C)NC(=O)[C@@H](NC(=O)[C@H](C)NC(=O)[C@@H](NC(=O)[C@H](CO)NC(=O)[C@H](CC(C)C)NC(=O)[C@H](CCC(N)=O)NC(=O)[C@H](CO)NC(=O)[C@H](C)NC(=O)COCCOCCNC(=O)COCCOCCNC(=O)[C@H](CC(=O)O)NC(=O)CCCCCCCCCCCCCCCCC(=O)O)[C@@H](C)O)C(C)C)C(=O)N[C@@H](CO)C(=O)N[C@@H](CC(=O)O)C(=O)N[C@@H](CCC(=O)O)C(=O)N[C@@H](CC(C)C)C(=O)N[C@@H](Cc1c[nH]cn1)C(=O)N[C@@H](CCCNC(=N)N)C(=O)N[C@@H](CC(C)C)C(=O)N[C@@H](CCC(N)=O)C(=O)N[C@@H](CC(=O)O)C(=O)N[C@@H](Cc1ccc(O)cc1)C(=O)N1CCC[C@H]1C(=O)N[C@@H](CCCNC(=N)N)C(=O)N[C@H](C(=O)N[C@@H](CC(=O)O)C(=O)N[C@H](C(=O)NCC(=O)N[C@@H](CO)C(=O)NCC(=O)N[C@@H](CO)C(=O)N1CCC[C@H]1C(N)=O)C(C)C)[C@@H](C)O [M26] ({C18 diacid}-D[AEEA][AEEA]ASQLSTAVLGRLSDELHRLQDYPRTDVGSGSP-NH2) | – | 24 | – | −2.402 | −2.235 | −2.39 | −2.68% | – | 8 |

The remaining compounds from weak to strong by EC50 [2], led by results:

| Fold change in activity against hAMY3R [1] | EC50 [2] [pM] | Fold change in activity against hCTR [2] | Concentration change on 7 d [3] [%] | Concentration change on 26 d [3] [%] | Purity change on 7 d [3] [%] | Purity change on 26 d [3] | increase in the ratio of activity against the amylin receptor to agonistic activity against the calcitonin receptor ([1]; relative to the benchmark D1) [fold] | EC50 ([1]; incubation of 24 hours, Table 3, read-out: EC50, activity against the amylin receptor in cells) [pM] | SMILES |
| --- | --- | --- | --- | --- | --- | --- | --- | --- | --- |
| 0.439 | 376 | 0.229 | −2.883 | −3.036 | 3.42 | 2.18% | – | – | CC(C)C[C@H](NC(=O)[C@H](CCCNC(=N)N)NC(=O)CNC(=O)[C@H](CC(C)C)NC(=O)[C@@H](NC(=O)[C@H](C)NC(=O)[C@@H](NC(=O)[C@H](CO)NC(=O)[C@H](CC(C)C)NC(=O)[C@H](CCC(N)=O)NC(=O)[C@H](CO)NC(=O)[C@H](C)NC(=O)C1CCN(C(=O)CCCCCCCCCCCCCCCCCCC(=O)O)CC1)[C@@H](C)O)C(C)C)C(=O)N[C@@H](CO)C(=O)N[C@@H](CC(=O)O)C(=O)N[C@@H](CCC(=O)O)C(=O)N[C@@H](CC(C)C)C(=O)N[C@@H](Cc1c[nH]cn1)C(=O)N[C@@H](CCCNC(=N)N)C(=O)N[C@@H](CC(C)C)C(=O)N[C@@H](CCC(N)=O)C(=O)N[C@@H](CC(=O)O)C(=O)N[C@@H](Cc1ccc(O)cc1)C(=O)N1CCC[C@H]1C(=O)N[C@@H](CCCNC(=N)N)C(=O)N[C@H](C(=O)N[C@@H](CC(=O)O)C(=O)N[C@H](C(=O)NCC(=O)N[C@@H](CO)C(=O)NCC(=O)N[C@@H](CO)C(=O)N1CCC[C@H]1C(N)=O)C(C)C)[C@@H](C)O [M16] ({C20 diacid-Inp}-ASQLSTAVLGRLSDELHRLQDYPRTDVGSGSP-NH2) |
| 0.571 | 259 | 0.332 | −1.927 | −5.985 | −1 | −3.9% | 1.7 | – | CC(C)C[C@H](NC(=O)[C@H](CCCNC(=N)N)NC(=O)CNC(=O)[C@H](CC(C)C)NC(=O)[C@@H](NC(=O)[C@H](C)NC(=O)[C@@H](NC(=O)[C@H](CO)NC(=O)[C@H](CC(C)C)NC(=O)[C@H](CCC(N)=O)NC(=O)[C@H](CO)NC(=O)[C@H](C)NC(=O)C1CCN(C(=O)CCCCCCCCCCCCCCCCC(=O)O)CC1)[C@@H](C)O)C(C)C)C(=O)N[C@@H](CO)C(=O)N[C@@H](CC(=O)O)C(=O)N[C@@H](CCC(=O)O)C(=O)N[C@@H](CC(C)C)C(=O)N[C@@H](Cc1c[nH]cn1)C(=O)N[C@@H](CCCNC(=N)N)C(=O)N[C@@H](CC(C)C)C(=O)N[C@@H](CCC(N)=O)C(=O)N[C@@H](CC(=O)O)C(=O)N[C@@H](Cc1ccc(O)cc1)C(=O)N1CCC[C@H]1C(=O)N[C@@H](CCCNC(=N)N)C(=O)N[C@H](C(=O)N[C@@H](CC(=O)O)C(=O)N[C@H](C(=O)NCC(=O)N[C@@H](CO)C(=O)NCC(=O)N[C@@H](CO)C(=O)N1CCC[C@H]1C(N)=O)C(C)C)[C@@H](C)O [M17] ({C18 diacid-Inp}-ASQLSTAVLGRLSDELHRLQDYPRTDVGSGSP-NH2) |
